The structures appear in SMILES notation.

Data set [1] concerns the target T1, purified recombinant Cdc25-C enzyme (MBP-Cdc25C protein) (Homo sapiens, UniProt P30307).
T1 construct: made in house
T1 sequence (P30307 1-473): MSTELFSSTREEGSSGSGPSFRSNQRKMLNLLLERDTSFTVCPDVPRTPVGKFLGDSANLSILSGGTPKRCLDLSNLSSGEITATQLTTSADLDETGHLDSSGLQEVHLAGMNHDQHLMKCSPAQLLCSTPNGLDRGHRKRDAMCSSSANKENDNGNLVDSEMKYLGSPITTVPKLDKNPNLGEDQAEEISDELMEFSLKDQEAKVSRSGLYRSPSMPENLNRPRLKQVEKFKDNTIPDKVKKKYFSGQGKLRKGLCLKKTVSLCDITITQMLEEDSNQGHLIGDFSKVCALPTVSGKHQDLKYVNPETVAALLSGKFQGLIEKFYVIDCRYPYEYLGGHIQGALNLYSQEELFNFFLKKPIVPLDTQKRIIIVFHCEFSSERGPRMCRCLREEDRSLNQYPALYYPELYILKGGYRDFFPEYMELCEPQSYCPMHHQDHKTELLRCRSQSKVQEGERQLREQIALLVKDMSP
Nature of the data set: Phosphatase activity of the purified recombinant Cdc25C enzyme (OMFP dephosphorylation, fluorescence). It is filed as biochemical. Conditions: OMFP 500 μM, 4 hours at 30° C. On the procedure: The phosphatase activity of the MBP-Cdc25C protein is evaluated through its dephosphorylation of 3-O-methylfluorescein-phosphate (OMFP) to form 3-O-methylfluorescein (OMF), determining the fluorescence of the reaction product at 475 nm. This assay can be used to identify inhibitors of the recombinant Cdc25 enzyme. The preparation of the MBP-Cdc25C fusion protein is described in patent application PCT WO 01/44467.
The reaction is performed in 384-well plates in a final volume of 50 μl. The MBP-Cdc25C protein (prepared as described hereinabove) is stored in the following elution buffer: 20 mM Tris-HCl pH 7.4; 250 mM NaCl; 1 mM EDTA; 1 mM dithiothreitol (DTT); 10 mM maltose. It is diluted to a concentration of 60 μM in the following reaction buffer: 50 mM Tris-HCl pH 8.2; 50 mM NaCl; 1 mM DTT; 20% glycerol. The background noise is determined using with the buffer without addition of the enzyme. The products are tested at decreasing concentrations from 40 μM. The reaction is initiated by the addition of a solution OMFP to a final concentration of 500 μM (prepared immediately before use from a 12.5 mM stock solution in 100% DMSO (Sigma #M2629)). After 4 hours at 30° C. in a disposable 384-well plate, the fluorescence measured at OD 475 nm is read on a Victor^2 plate reader (EGG-Wallac). The concentration that produces 50% inhibition of the enzyme reaction is calculated from three independent experiments. Only the values that fall within the linear part of the sigmoid curve are used for the linear regression analysis.

A word on the melting point: it is the temperature, or range, at which the solid turns liquid. `CN(CCCNC(=O)Nc1ccc(Cl)c(C(F)(F)F)c1)CCCNc1cc(N2CCCC2)nc(N2CCCC2)n1.Cl`: the melting point is 115 to 117 °C.

As to `CN(CCNC(=S)Nc1ccc(Cl)cc1)CCNc1cc(N2CCCC2)nc(N2CCCC2)n1.Cl`, the melting point lay within 211 to 213 °C.

As usually defined, the IC50 is the concentration that gives 50% inhibition. For `CN(CCN)CCNc1cc(N2CCCC2)nc(N2CCCC2)n1` [Example 1, N-{2-[(2,6-dipyrrolidin-1-ylpyrimidin-4-yl)amino]ethyl}-N-methylethane-1,2-diamine], the melting point lay in the range of 67 to 69 °C. For the same compound, the IC50 in data set [1] was ≤ 5 µM.

For the compound `CN(CCCN)CCCNc1cc(N2CCCC2)nc(N2CCCC2)n1` [Example 2, N-(3-aminopropyl)-N′-(2,6-dipyrrolidin-1-ylpyrimidin-4-yl)-N-methylpropane-1,3-diamine], in data set [1], the IC50 is ≤ 5 µM.

For the compound `CNCCCN(C)CCCN(C)c1cc(N2CCCC2)nc(N2CCCC2)n1` [Example 3, N-(2,6-dipyrrolidin-1-ylpyrimidin-4-yl)-N,N′-dimethyl-N′-[3-(methylamino)propyl]propane-1,3-diamine], the IC50 in data set [1] is ≤ 5 µM.

For the compound `NCCCCCNc1cc(N2CCCC2)nc(N2CCCC2)n1` [Example 4, N-(2,6-dipyrrolidin-1-ylpyrimidin-4-yl)pentane-1,5-diamine], in data set [1], the IC50 is ≤ 5 µM.

With `CN(C)CCCCCNc1cc(N2CCCC2)nc(N2CCCC2)n1` [Example 5, N′-(2,6-dipyrrolidin-1-ylpyrimidin-4-yl)-N,N-dimethylpentane-1,5-diamine], the IC50 in data set [1] is ≤ 5 µM.

As to `CCN(CC)CCCCCNc1cc(N2CCCC2)nc(N2CCCC2)n1` [Example 6, N′-(2,6-dipyrrolidin-1-ylpyrimidin-4-yl)-N,N-diethylpentane-1,5-diamine], in data set [1], the IC50 was ≤ 5 µM.

Turning to `CN(CCNC(=O)Nc1ccc(Cl)c(C(F)(F)F)c1)CCNc1cc(N2CCCC2)nc(N2CCCC2)n1` [Example 7, N-[4-chloro-3-(trifluoromethyl)phenyl]-N′-{2-[{2-[(2,6-dipyrrolidin-1-ylpyrimidin-4-yl)amino]ethyl}(methyl)amino]ethyl}urea], the IC50 in data set [1] is ≤ 1 µM.

`CN(CCNC(=O)NCc1ccccc1)CCNc1cc(N2CCCC2)nc(N2CCCC2)n1` [Example 8, N-benzyl-N′-{2-[{2-[(2,6-dipyrrolidin-1-ylpyrimidin-4-yl)amino]ethyl}(methyl)amino]ethyl}urea] came in with a melting point of 87 to 89 °C. Besides, the IC50 in data set [1] was ≤ 5 µM.

As to `CN(CCNC(=O)NC(C)(C)C)CCNc1cc(N2CCCC2)nc(N2CCCC2)n1` [Example 9, N-(tert-butyl)-N′-{2-[{2-[(2,6-dipyrrolidin-1-ylpyrimidin-4-yl)amino]ethyl}(methyl)amino]ethyl}urea], the melting point was 107 to 109 °C. In data set [1], the 50% inhibitory concentration (IC50) was ≤ 5 µM.

The compound `CN(CCNc1cc(N2CCCC2)nc(N2CCCC2)n1)CCN(C(N)=O)[C@@H]1CCc2ccccc2C1` [Example 11, N-{2-[{2-[(2,6-dipyrrolidin-1-ylpyrimidin-4-yl)amino]ethyl}(methyl)amino]ethyl}-N-[(2R)-1,2,3,4-tetrahydronaphthalen-2-yl]urea] showed a melting point of 93 to 95 °C.

For `CN(CCNC(=O)NC1CCCC1)CCNc1cc(N2CCCC2)nc(N2CCCC2)n1` [Example 12, N-cyclopentyl-N′-{2-[{2-[(2,6-dipyrrolidin-1-ylpyrimidin-4-yl)amino]ethyl}(methyl)amino]ethyl}urea], the melting point fell in the range of 119 to 121 °C. Further, the IC50 in data set [1] was ≤ 5 µM.

On to `Cc1noc(C)c1NC(=O)NCCN(C)CCNc1cc(N2CCCC2)nc(N2CCCC2)n1` [Example 13, N-(3,5-dimethylisoxazol-4-yl)-N′-{2-[{2-[(2,6-dipyrrolidin-1-ylpyrimidin-4-yl)amino]ethyl}(methyl)amino]ethyl}urea], for which the melting point is 95 to 97 °C. Besides, the IC50 in data set [1] was ≤ 1 µM.

The compound `CN(CCNC(=O)NCc1ccco1)CCNc1cc(N2CCCC2)nc(N2CCCC2)n1` [Example 14, N-{2-[{2-[(2,6-dipyrrolidin-1-ylpyrimidin-4-yl)amino]ethyl}(methyl)amino]ethyl}-N′-(2-furylmethyl)urea] had a melting point of 103 to 105 °C. In addition, the IC50 in data set [1] is ≤ 1 µM.

On to `CCN(CCN(C)CCNc1cc(N2CCCC2)nc(N2CCCC2)n1)C(N)=O` [Example 18, N-{2-[{2-[(2,6-dipyrrolidin-1-ylpyrimidin-4-yl)amino]ethyl}(methyl)amino]ethyl}-N-ethylurea], for which the melting point fell in the range of 127 to 129 °C.

Regarding `CCNC(=O)NCCN(C)CCNc1cc(N2CCCC2)nc(N2CCCC2)n1` [Example 18], the IC50 in data set [1] was ≤ 5 µM.

The compound `O=C(NCCOCCNc1cc(N2CCCC2)nc(N2CCCC2)n1)Nc1ccc(Cl)c(C(F)(F)F)c1` [Example 20, N-[4-chloro-3-(trifluoromethyl)phenyl]-N′-(2-{2-[(2,6-dipyrrolidin-1-ylpyrimidin-4-yl)amino]ethoxy}ethyl)urea] had a melting point of 79 to 81 °C. The IC50 in data set [1] is ≤ 5 µM.

`CN(CCNC(=S)Nc1ccc(Cl)cc1)CCNc1cc(N2CCCC2)nc(N2CCCC2)n1` [Example 22, N-(4-chlorophenyl)-N′-{2-[{2-[(2,6-dipyrrolidin-1-ylpyrimidin-4-yl)amino]ethyl}(methyl)amino]ethyl}thiourea] showed a melting point of 127 to 129 °C. In addition, in data set [1], the IC50 was ≤ 1 µM.

Regarding `CCNC(=S)NCCN(C)CCNc1cc(N2CCCC2)nc(N2CCCC2)n1` [Example 28, N-{2-[{2-[(2,6-dipyrrolidin-1-ylpyrimidin-4-yl)amino]ethyl}(methyl)amino]ethyl}-N′-ethylthiourea], the melting point was in the range of 82 to 84 °C. For the same compound, in data set [1], the IC50 was ≤ 1 µM.

Turning to `CN(CCNC(=S)NCC1CCCO1)CCNc1cc(N2CCCC2)nc(N2CCCC2)n1` (centres unmarked) [Example 31, N-{2-[{2-[(2,6-dipyrrolidin-1-ylpyrimidin-4-yl)amino]ethyl}(methyl)amino]ethyl}-N′-(tetrahydrofuran-2-ylmethyl)thiourea], the melting point was 120 to 122 °C. In addition, in data set [1], the IC50 is ≤ 5 µM.

As for `CN(CCNC(=S)Nc1ccc(N2CCOCC2)nc1)CCNc1cc(N2CCCC2)nc(N2CCCC2)n1` [Example 32, N-{2-[{2-[(2,6-dipyrrolidin-1-ylpyrimidin-4-yl)amino]ethyl}(methyl)amino]ethyl}-N′-(6-morpholin-4-ylpyridin-3-yl)thiourea], the melting point was in the range of 116 to 118 °C. Further, the IC50 in data set [1] is ≤ 5 µM.

`CN(CCNC(=S)Nc1c(F)c(F)c(F)c(F)c1F)CCNc1cc(N2CCCC2)nc(N2CCCC2)n1` [Example 34, N-{2-[{2-[(2,6-dipyrrolidin-1-ylpyrimidin-4-yl)amino]ethyl}(methyl)amino]ethyl}-N′-(pentafluorophenyl)thiourea]: the melting point is 92 to 94 °C. Further, in data set [1], the IC50 is ≤ 5 µM.

The compound `CN(CCNC(=S)Nc1cccc(F)c1)CCNc1cc(N2CCCC2)nc(N2CCCC2)n1` [Example 39, N-{2-[{2-[(2,6-dipyrrolidin-1-ylpyrimidin-4-yl)amino]ethyl}(methyl)amino]ethyl}-N′-(3-fluorophenyl)thiourea] came in with a melting point of 118 to 120 °C. Moreover, the IC50 in data set [1] was ≤ 1 µM.

With `FC(F)(F)c1cc(NC(=S)NCCCCCNc2cc(N3CCCC3)nc(N3CCCC3)n2)ccc1Cl` [Example 57, N-[4-chloro-3-(trifluoromethyl)phenyl]-N′-{5-[(2,6-dipyrrolidin-1-ylpyrimidin-4-yl)amino]pentyl}thiourea], the melting point was 85 to 87 °C.

In the case of `CN(CCNC(=S)Nc1ccc(Cl)cc1)CCNc1cc(N2CCOCC2)nc(N2CCOCC2)n1` [Example 66, N-(4-chlorophenyl)-N′-{2-[{2-[(2,6-dimorpholin-4-ylpyrimidin-4-yl)amino]ethyl}(methyl)amino]ethyl}thiourea], the melting point fell in the range of 81 to 83 °C.

Consider `CCN(CC)c1cc(NCCN(C)CCNC(=S)Nc2ccc(Cl)cc2)nc(N(CC)CC)n1` [Example 71, N-{2-[(2-{[2,6-bis(diethylamino)pyrimidin-4-yl]amino}ethyl)(methyl)amino]ethyl}-N′-(4-chlorophenyl)thiourea], for which the IC50 in data set [1] is ≤ 1 µM.

Consider `CN(CCNC(=O)c1cnc2ccccc2n1)CCNc1cc(N2CCCC2)nc(N2CCCC2)n1` [Example 82, N-{2-[{2-[(2,6-dipyrrolidin-1-ylpyrimidin-4-yl)amino]ethyl}(methyl)amino]ethyl}quinoxaline-2-carboxamide], for which the melting point lay within 146 to 148 °C.

(Values after patent US20100137275A1 (IPSEN PHARMA S.A.S., priority 2007, published 2010).)
